# Assay results taken from US6969590B2, “Use of a polypeptide for treatment of pruritus in animals” (Zengen, Inc., priority 2001, dated 2005).
# “Also recorded” adds a separate entry of the source.
# Legend:
# [1] = kind of activity not given; cited from earlier work
# [2] = system: inflammation induced in the ear by picryl chloride; test: Picryl chloride-induced ear swelling; format: in vivo, BALB/C mice
# Method: Female BALB/C mice (Simmons Laboratories), 7 weeks old, were housed at 23-25° C. in groups of no more than 5 per cage [28 cm (L)×18 cm (W)×13 cm (H)]. They were allowed to acclimatize to standard lighting and temperature conditions for at least 1 week, with food and water available ad lib, before the experiment began. Five to ten animals were randomly assigned to each treatment group each test day, and all experiments were repeated at least twice to confirm reproducibility. To reduce error due to slight differences in responses to the irritant of animals from different shipments, tests of each agent were performed as separate experiments in which experimental and control animals were drawn from the same shipment.
# In the experiments each animal was anesthetized with 1 mg of pentobarbital sodium solution (50 mg/kg, Nembutal, Abbott Laboratories, Abbott park, Ill.). Baseline ear thickness was measured for both ears with a spring-loaded micrometer (Swiss Precision Instruments, Los Angeles, Calif.). Ear thickness was expressed in units of 10^−3 cm; the average thickness of unstimulated ears was approximately 25-30×10^−3 cm. After baseline measurements were taken, one of six solutions was injected IP. Control animals received 0.2 ml of sterile saline, and experimental animals received Ac-α-MSH (11-13)-NH2, i.e., Ac-Lys-Pro-Val-NH2), Ac[D-Lys^11] α-MSH (11-13)-NH2, Ac[D-Pro^12] α-MSH (11-13)-NH2, Ac[D-Val^13] α-MSH (11-13)-NH2 or Ac-[D-Lys^11, D-Val^13] α-MSH (11-13)-NH2 in the same volume of saline. […] The doses of the tripeptides were 10 μg ([…]), 20 μg ([…]), 40 μg (1.04×10^−7 M), and 80 μg (2.08×10^−7 M). Immediately after saline or α-MSH injection, a micropipette was used to coat both sides of each ear with 10 μl (40 μl per mouse) of a 0.5% picryl chloride (Polysciences, Warrington, Pa.) solution in acetone.
# Ear thickness was remeasured 3 and 6 h after picryl chloride application. Swelling was determined by subtracting baseline thickness from the measurements for each ear at 3 and 6 h. The differences for both ears were then averaged for the final analysis.
# Repeated-measure ANOVA techniques were used to determine if there was an overall difference among group data for each peptide tested in separate experiments. In those cases in which the ANOVA yielded significant results, Dunnett's test was then used to compare the effects of peptide doses with control (saline) data for each of the two time periods, 3 and 6 h.
# [3] = system: C. albicans; test: C. albicans colony forming units (candidacidal activity); format: cell-based
# Method: C. albicans (1×10^6/ml in HBSS) was incubated in the presence or absence or α-MSH (1-13) or α-MSH (11-13) at concentrations in the range of 10^−15 M to 10^−6 M for 2 hours at 37° C. Cells were then washed in cold distilled water and diluted with HBSS to a concentration of 100 organisms/ml. One-ml aliquots were dispensed on blood agar plates and incubated for 48 hours at 37° C. Organism viability was estimated from the number of colonies formed. In subsequent experiments using familiar procedures we compared activity of α-MSH (4-10), α-MSH (6-13), α-MSH (11-13), ACTH (1-39), (18-39) and fluconazole, the latter an established antifungal agent. Melanocortin peptides and fluconazole were tested in concentrations of 10^−6 M to 10^−4 M. There were at least six replicates for each concentration of peptide.
# [4] = system: NO2^−; test: Nitrite (NO) production by activated N9 microglia; format: cell-based, murine; conditions: microglia stimulated with LPS+IFN-γ for 24 hr, micromolar concentrations
# Method: (§1) The N9 clone of murine microglial cells was obtained by immortalization of embryonic brain cultures with the 3RV retrovirus carrying an activated v-myconcogene. N9 cells were cultured in T-75-cm^2 culture flasks (Corning, Cambridge, Mass.) and maintained at 37° C. in a humidified incubator under 5% CO2 atmosphere in RPMI 1640 supplemented with 2 mM L-glutamine, 50 U/mL penicillin G, 50 μg/mL streptomycin sulfate (GIBCO-BBL, Paisley, UK), and 10% heat-inactivated fetal bovine serum (FBS, Hyclone Lab, Inc., Logan, Utah) until experiments were performed. Cells were used between the first and the tenth passage.
# (§2) Sub-confluent microglial cells were washed twice with phosphate-buffered saline (PBS) and incubated with trypsin 0.025% and ethylenediaminetetraacetate (EDTA) 0.02% without calcium and magnesium for 3 min. at 37° C. to detach the cells from the culture flask. Cells were then resuspended in medium and incubated in 24-well tissue-culture plates at a concentration of 2×10^5 cells/mL for 16 h in a humidified incubator (37° C., 5% CO2). Growth medium was removed and cell monolayers were stimulated with 10 ng/mL lipopolysaccharide (LPS, from Escherichia coli 055:B5, Sigma Chemical Co., St. Louis, Mo.) plus 1 U/ml, murine IFN-γ (Sigma). To test effects of melanocortin peptides, concentrations (1, 10, 25, 50 and 100 μM) of α-MSH (1-13), α-MSH (11-13), and ACTH (1-24) (Sigma) were dissolved in medium and added to wells 10 min before treatment with LPS+IFN-γ. […] Viability of cells was assessed by trypan blue exclusion for each experimental condition; it was consistently >98%. […]
# NO is rapidly oxidized to nitrite (NO2) in culture medium, and nitrite concentration is an indicator of NO production. […] Samples were incubated at room temperature for 10 min and absorbency was measured at 540 nm with the use of a microplate reader. Nitrite concentrations were calculated using a sodium nitrite standard curve.
# (§3) Effects of melanocortin peptides on cytokine and NO production were evaluated by repeated measures analysis of variance followed by Dunnet's test for specific comparisons. […]
# [5] = system: human neutrophils; test: C. albicans killing by human neutrophils; format: cell-based; conditions: 2 hours at 37° C., vs. medium
# Method: Venous blood (20 ml) from healthy volunteers was anticoagulated with heparin. Neutrophils were isolated using dextran sedimentation and Ficoll-Hypaque (Sigma Chemical Co., St. Louis, Mi., USA) centrifugation. Erythrocytes were lysed via hypotonic shock. Neutrophils represented at least 97% of the cell suspension. Cell viability, estimated by trypan blue exclusion, was >98%. Neutrophils were suspended to a final concentration in HBSS. C. albicans (1×10^6) were opsonized with human AB serum in a shaking water bath for 30 minutes at 37° C. Organisms were then incubated with neutrophils in medium or in medium with α-MSH (1-13) or α-MSH (11-13) in concentrations of 10^−15 M to 10^−4 M in a shaking water bath for 2 hours at 37° C. After incubation, the culture tubes were placed on ice to stop growth and extracellular organisms were washed twice with centrifugation at 1000×g at 4° C. A 2.5% sodium desoxycholoate solution was added to obtain a suspension of 10^6 cells/ml. Two 1/100 serial dilutions in HBSS were made to obtain a final suspension of 100 cells/ml. Aliquots of 1 ml were dispensed on blood agar plates and incubated for 48 hours at 37° C. Colony forming units (CFUs) were counted at the end of the incubation period. Experiments were run in triplicate and repeated using blood from 5 different donors.
# [6] = system: cAMP; test: cAMP accumulation in N9 cells; format: cell-based, murine; conditions: resting cells and cells incubated with LPS+IFN-γ
# Method: cAMP accumulation in N9 cells was measured as previously described. Briefly, cells in six-well plates were co-incubated at 37° C. with (1) medium; (2) forskolin (100 μM); (3) LPS (10 ng/mL)+IFN-γ (1 U/mL); (4) α-MSH (1-13) or α-MSH (11-13) (1, 10, 50 μM); (5) LPS+IFN-γ and either α-MSN (1-13) or α-MSH (11-13) (10 μM). Reactions were stopped after 3 min by aspirating supernatants, immediately adding 1 mL ethanol at −20° C. and freezing. cAMP content in the ethanol-soluble fraction was measured using an enzyme immunoassay kit (Amersham).
# [7] = system: IL-6; test: IL-6 production by activated N9 microglia; format: cell-based, murine; conditions: microglia stimulated with LPS+IFN-γ for 24 hr, micromolar concentrations
# Method: as §1, §2
# (§4) TNF-α bioactivity was measured in supernatants of cell cultures by standard cytotoxicity assay using L929 cells and recombinant human TNF-α (Sigma) as standard. […] IL-6 was measured using a commercial murine enzyme-linked immunosorbent assay (ELISA: RPN 2714, Amersham, Little Chalfont, UK).
# as §3
# [8] = system: C. albicans; test: Horse serum-induced germ tube formation of C. albicans; format: cell-based; conditions: 10^−6M, 60 minutes at 37° C.
# Method: C. albicans from stationary phase cultures were washed twice with distilled water and suspended in HBSS to a final concentration of 2×10^6/ml. Hyphal growth was induced by addition of 10% inactivated horse serum (GIBCO/BRL, Great Britain) to yeast incubated for 45 minutes at 37° C. with continuous shaking. Horse serum was removed by washing cells twice with HBSS and incubation was continued for 60 minutes at 37° C. in the presence of α-MSH (1-13), α-MSH (6-13) or α-MSH (11-13) at a concentration of 10^−6M with continuous shaking. The percentage of filamentous cells was evaluated under a light microscope with the aid of hemocytometer. Experiments were run in triplicate and at least 200 cells were scored. Photomicrographs were taken with an MC100 camera attached to an Axioskop Zeiss microscope.
# [9] = system: TNF-α and iNOS mRNA; test: Northern blot of TNF-α and iNOS mRNA in activated microglia; format: cell-based, murine
# Method: Total cellular RNA was extracted from 10^6 adherent microglial cells plated in six-well tissue culture plates (Corning). Electrophoresis of RNA samples (10 μg/lane) was performed in 1% agarose/2.2 M formaldehyde gels and the gels subsequently blotted onto nylon filters by capillary action and baked for 2 h before prehybridization. The cDNA fragments encoding murine TNF-α and mouse macrophage iNOS were ^32P-labeled using the Ready-To-Go DNA Labeling Kit (Pharmacia, Uppsala, Sweden) before hybridization of nylon filters and autoradiography. Blots were subsequently rehybridized with human glyceraldehyde-3-phosphate dehydrogenase (G-3-PDH) cDNA probe as an internal control (Clontech Laboratories, Inc., Palo Alto, Calif.).
# [10] = system: TNF-α; test: TNF-α production by activated N9 microglia; format: cell-based, murine; conditions: microglia stimulated with LPS+IFN-γ for 24 hr, micromolar concentrations
# Method: as §1, §2, §4, §3
# [11] = system: fever; conditions: relative to parent peptide or to the 11-13 sequence; cited from earlier work
substance,measurement,setting,value
Ac-[D-Lys^11]α-MSH (11-13)-NH2,general potency relative to L-form tripeptide,[1],same general potency as the L-form of the tripeptide α-MSH (11-13)
same,% Inhibition of swelling,"[2]; 10 μg IP, 3 h",23%
same,% Inhibition of swelling,"[2]; 10 μg IP, 6 h",17%
same,% Inhibition of swelling,"[2]; 20 μg IP, 3 h",25%
same,% Inhibition of swelling,"[2]; 20 μg IP, 6 h",16%
same,% Inhibition of swelling,"[2]; 40 μg IP, 3 h",35%
same,% Inhibition of swelling,"[2]; 40 μg IP, 6 h",37%
same,% Inhibition of swelling,"[2]; 80 μg IP, 3 h",34%
same,% Inhibition of swelling,"[2]; 80 μg IP, 6 h",29%
same,overall effect on ear inflammation (ANOVA),"[2]; 10-80 μg IP, 3 and 6 h",significantly reduced inflammation
"Lys-Pro-Val (KPV; Designed polypeptide with anti-inflammatory, anti-bacterial, anti-fungal and antipyretic properties.) [α-MSH (11-13), C-terminal tripeptide KPV of α-MSH]",relative potency in reducing C. albicans viability,[3]; 10^−4M melanocortin peptides,the most effective
same,effect on C. albicans colony forming units (CFU),"[3]; 2 hours at 37° C., vs. control",greatly reduced; also recorded: significantly decreased C. albicans colony forming units; also recorded: inhibitory effect
same,reduction of production of NO2^−,[4],40%
same,killing of C. albicans by human neutrophils,[5],enhanced the killing
same,cAMP accumulation,[6],increased cAMP accumlation
same,reduction of production of IL-6,[7],50%
same,reduction in the number of filamentous cells (inhibition of germination),[8],54-58%
same,mRNA for TNF-α and iNOS (Northern blot),[9],inhibition of mRNA transaction for TNF-α and iNOS
same,reduction of production of TNF-α,[10],45%
"[Nle^4, D-Phe^7]-α-MSH",antipyretic potency,[11],approximately ten times more potent than the parent peptide in reducing fever
